Legend:
[1] = system: Ba/F3 Bcr-Abl T315I cells; assay: Cell proliferation analysis, Ba/F3 Bcr-Abl T315I; type: cell-based; conditions: for IC50: Mus musculus, BaF3, 72 h, 3 days, CellTiter-Glo; for Selectivity [Ba/F3 (parental/Bcr-Abl ^T315I)]: ratio of Ba/F3 parental to Ba/F3 Bcr-Abl T315I
Experimental: (§1) The inhibitory effect of the example compounds on Ba/F3, Ba/F3 Bcr-Abl T315I cell activity was determined.
(§2) Materials and reagents: RPMI-1640 medium (GIBCO, Catalog No. A10491-01), fetal bovine serum (GIBCO, Catalog No. 10099141), antibiotics (Penicillin-Streptomycin), IL-3 (PeproTech), promycin; cell lines: Ba/F3, Ba/F3 Bcr-Abl T315I (Purchased from American type culture collection, ATCC), live cell detection kit […] (Promega, Catalog No. G7572), 96-well black wall transparent flat bottom cell culture plate (Corning, Catalog No. 3340).
(§3) Test method: 1. Preparation of cell plate: Ba/F3, Ba/F3 Bcr-Abl T315I cells were respectively seeded in 96-well plates, and 8 ng/ml IL-3 was added to the Ba/F3 cells, and the cell plates were placed in a carbon dioxide incubator and cultured overnight. 2. The test compounds were dissolved in DMSO, 9 compound concentrations were made with a 3.16-fold gradient dilution in triplicate. 3. Treatment of the cells with compounds: The compounds were transferred to the cell plate with a starting concentration of 10 μM. The cell plate was placed in a carbon dioxide incubator for 3 days. 4. Detection: CellTiter-Glo agent was added to the cell plate, and incubated at room temperature for 30 minutes to stabilize the luminous signal. PerkinElmer Envision multi-label analyzer was used for reading, wherein A represents […], B represents IC50 is 10-20 nM, C represents IC50 is 20-50 nM, D represents IC50 is 50-1000 nM, E represents IC50>1000 nM.

Ba/F3 parental cells = assay: Cell proliferation analysis, Ba/F3 parental; type: cell-based; conditions: Mus musculus, BaF3, 72 h; 8 ng/ml IL-3, 3 days, CellTiter-Glo
Experimental: as §1, §2, §3

ABL^T315I = ABL^T315I (Homo sapiens (Human), UniProt P00519, T315I); assay: Biochemical kinase analysis, ABL T315I
Experimental: (§4) Reagents and materials: ABL (ThermoFisher, Cat. No PV3585), ABL^T315I (Thermo Fisher, Cat. No. PR7429B), ATP (Sigma, Cat. No. A7699-1G), DMSO (Sigma, Cat. No. D2650), 96-well plate (Corning, Cat. No. 3365), 384-well plate (Greiner, Cat. No. 784076), buffer solution (Thermo Fisher, Cat. No. PR4876B).
(§5) Compound formulation: The test compounds were dissolved in DMSO to prepare a 20 mM stock solution. Before use, the compounds were diluted in DMSO to 0.1 mM, and diluted into 11 concentrations with a 3-fold gradient. When addition, diluentions of 4-fold final concentration were then made with buffer solution.
(§6) Kinase assay method: After preparing the buffer, the enzyme was mixed with pre-formulated and diluted compounds of different concentrations in duplicate for each concentration, and placed at room temperature for 30 minutes. The corresponding substrate and ATP were added thereto, and reacted at room temperature for 60 minutes (both a negative and a positive control were set). After the reaction, antibody was added for detection, Envision detection was carried out after 60 minutes incubation at room temperature, and data was collected. Data analysis and fitting were made according to XLfit5 software, wherein, A represents IC50≤5 nM, B represents IC50 is 5-50 nM, C represents IC50 is 50-100 nM, D represents IC50>100 nM.

ABL = ABL (Homo sapiens (Human), UniProt P00519); assay: Biochemical kinase analysis, ABL
Experimental: as §4, §5, §6

In the case of `CCc1nc(C#Cc2cc(C(=O)Nc3ccc(CN4CCN(C)CC4)c(C(F)(F)F)c3)ccc2C)c2c(N)nccn12` [Example 1, 3-((8-amino-3-ethylimidazo[1,5-a]pyrazin-1-yl)ethynyl)-4-methyl-N-(4-((4-methylpiperazin-1-yl)methyl)-3-(trifluoromethyl)phenyl)benzamide], the IC50 [1] is reported as 20 to 50 nM, the “Selectivity [Ba/F3 (parental/Bcr-Abl ^T315I)]” value [1] is reported as 50~100 and the IC50 (Ba/F3 parental cells) is reported as over 1000 nM. For the same compound, the IC50 (ABL^T315I) was at most 5 nM and the IC50 (ABL) was at most 5 nM.
In the case of `CCc1nc(C#Cc2cc(C(=O)Nc3cccc(C(F)(F)F)c3)ccc2C)c2c(N)nccn12` [Example 2, 3-((8-amino-3-ethylimidazo[1,5-a]pyrazin-1-yl)ethynyl)-4-methyl-N-(3-(trifluoromethyl)phenyl)benzamide], the IC50 (ABL^T315I) is reported as 50 to 100 nM and the IC50 (ABL) is reported as 5 to 50 nM.
In the case of `Cc1ccc(C(=O)Nc2ccc(CN3CCN(C)CC3)c(C(F)(F)F)c2)cc1C#Cc1nc(C)n2ccnc(N)c12` [Example 3, 3-((8-amino-3-methylimidazo[1,5-a]pyrazin-1-yl)ethynyl)-4-methyl-N-(4-((4-methylpiperazin-1-yl)methyl)-3-(trifluoromethyl)phenyl)benzamide], the IC50 (ABL^T315I) is reported as at most 5 nM and the IC50 (ABL) is reported as at most 5 nM.
In the case of `Cc1ccc(C(=O)Nc2ccc(CN3CCN(C)CC3)c(C(F)(F)F)c2)cc1C#Cc1nc(C(C)C)n2ccnc(N)c12` [Example 4, 3-((8-amino-3-isopropylimidazo[1,5-a]pyrazin-1-yl)ethynyl)-4-methyl-N-(4-((4-methylpiperazin-1-yl)methyl)-3-(trifluoromethyl)phenyl)benzamide], the IC50 [1] is reported as 50 to 1000 nM, the “Selectivity [Ba/F3 (parental/Bcr-Abl ^T315I)]” value [1] is reported as 0~50 and the IC50 (Ba/F3 parental cells) is reported as over 1000 nM. It also gave an IC50 (ABL^T315I) of at most 5 nM and an IC50 (ABL) of at most 5 nM.
`CCn1cc(C#Cc2cc(C(=O)Nc3cccc(C(F)(F)F)n3)ccc2C)c2c(N)ncnc21` [Example 7, 3-((4-amino-7-ethyl-7H-pyrrolo[2,3-d]pyrimidin-5-yl)ethynyl)-4-methyl-N-(6-(trifluoromethyl)pyridin-2-yl)benzamide] gave an IC50 (ABL^T315I) of 5 to 50 nM and an IC50 (ABL) of at most 5 nM.
For `CCn1cc(C#Cc2cccc(C(=O)Nc3cccc(C(F)(F)F)c3)c2)c2c(N)ncnc21` [Example 8, 3-((4-amino-7-ethyl-7H-pyrrolo[2,3-d]pyrimidin-5-yl)ethynyl)-N-(3-(trifluoromethyl)phenyl)benzamide], the IC50 (ABL^T315I) was at most 5 nM and the IC50 (ABL) was at most 5 nM.
`CCn1cc(C#Cc2cc(C(=O)Nc3ccc(CN(C)C)c(C(F)(F)F)c3)ccc2C)c2c(N)ncnc21` [Example 9, 3-((4-amino-7-ethyl-7H-pyrrolo[2,3-d]pyrimidin-5-yl)ethynyl)-N-(4-((dimethylamino)methyl)-3-(trifluoromethyl)phenyl)-4-methylbenzamide] was tested, and the IC50 [1] was 10 to 20 nM, the “Selectivity [Ba/F3 (parental/Bcr-Abl ^T315I)]” value [1] was 150~500 and the IC50 (Ba/F3 parental cells) was over 1000 nM. The IC50 (ABL^T315I) was at most 5 nM and the IC50 (ABL) was at most 5 nM.
With `CCn1cc(C#Cc2cc(C(=O)Nc3cc(-n4cnc(C)c4)cc(C(F)(F)F)c3)ccc2C)c2c(N)ncnc21` [Example 10, 3-((4-amino-7-ethyl-7H-pyrrolo[2,3-d]pyrimidin-5-yl)ethynyl)-4-methyl-N-(3-(4-methyl-1H-imidazol-1-yl)-5-(trifluoromethyl)phenyl)benzamide] the IC50 [1] was 10 to 20 nM, the “Selectivity [Ba/F3 (parental/Bcr-Abl ^T315I)]” value [1] was 150~500 and the IC50 (Ba/F3 parental cells) was over 1000 nM. It also gave an IC50 (ABL^T315I) of 5 to 50 nM and an IC50 (ABL) of 5 to 50 nM.
For `Cc1ccc(NC(=O)c2ccc(C)c(C(F)(F)F)c2)cc1C#Cc1cn(C2CCCC2)c2ncnc(N)c12` [Example 20, N-(3-((4-amino-7-cyclopentyl-7H-pyrrolo[2,3-d]pyrimidin-5-yl)ethynyl)-4-methylphenyl)-4-methyl-3-(trifluoromethyl)benzamide], the IC50 (ABL^T315I) was 50 to 100 nM and the IC50 (ABL) was 5 to 50 nM.
`Cc1ccc(C(=O)Nc2cccc(C(F)(F)F)c2)cc1C#Cc1cn([C@H]2CC[C@H](O)CC2)c2ncnc(N)c12` [Example 23, 3-((4-amino-7-((1r,4r)-4-hydroxycyclohexyl)-7H-pyrrolo[2,3-d]pyrimidin-5-yl)ethynyl)-4-methyl-N-(3-(trifluoromethyl)phenyl)benzamide] showed an IC50 (ABL^T315I) of 5 to 50 nM and an IC50 (ABL) of at most 5 nM.

From US11840535B2, “Alkynyl(hetero)aromatic compound for inhibiting protein kinase activity” (Shenzhen TargetRx, Inc., priority 2018, dated 2023)
